Results published in BindingDB's records for doi:10.1016/j.bmcl.2015.03.038 (Bristol Myers Squibb, 2015).

Experiments:
[1] = biological target: Neurogenic locus notch homolog protein 3 (Human, UniProt Q9UM47); assay: Inhibition of Notch3 intracellular domain fragment transfected in human HeLa cells co-transfected with CBF1-PGL3 luciferase reporter vector by transactivation assay
[2] = biological target: Neurogenic locus notch homolog protein 1 (Homo sapiens, UniProt P46531); assay: Inhibition of Notch1 intracellular domain fragment transfected in human HeLa cells co-transfected with CBF1-PGL3 luciferase reporter vector by transactivation assay
Chain of Neurogenic locus notch homolog protein 1 (P46531 whole entry, the tested form may be a part): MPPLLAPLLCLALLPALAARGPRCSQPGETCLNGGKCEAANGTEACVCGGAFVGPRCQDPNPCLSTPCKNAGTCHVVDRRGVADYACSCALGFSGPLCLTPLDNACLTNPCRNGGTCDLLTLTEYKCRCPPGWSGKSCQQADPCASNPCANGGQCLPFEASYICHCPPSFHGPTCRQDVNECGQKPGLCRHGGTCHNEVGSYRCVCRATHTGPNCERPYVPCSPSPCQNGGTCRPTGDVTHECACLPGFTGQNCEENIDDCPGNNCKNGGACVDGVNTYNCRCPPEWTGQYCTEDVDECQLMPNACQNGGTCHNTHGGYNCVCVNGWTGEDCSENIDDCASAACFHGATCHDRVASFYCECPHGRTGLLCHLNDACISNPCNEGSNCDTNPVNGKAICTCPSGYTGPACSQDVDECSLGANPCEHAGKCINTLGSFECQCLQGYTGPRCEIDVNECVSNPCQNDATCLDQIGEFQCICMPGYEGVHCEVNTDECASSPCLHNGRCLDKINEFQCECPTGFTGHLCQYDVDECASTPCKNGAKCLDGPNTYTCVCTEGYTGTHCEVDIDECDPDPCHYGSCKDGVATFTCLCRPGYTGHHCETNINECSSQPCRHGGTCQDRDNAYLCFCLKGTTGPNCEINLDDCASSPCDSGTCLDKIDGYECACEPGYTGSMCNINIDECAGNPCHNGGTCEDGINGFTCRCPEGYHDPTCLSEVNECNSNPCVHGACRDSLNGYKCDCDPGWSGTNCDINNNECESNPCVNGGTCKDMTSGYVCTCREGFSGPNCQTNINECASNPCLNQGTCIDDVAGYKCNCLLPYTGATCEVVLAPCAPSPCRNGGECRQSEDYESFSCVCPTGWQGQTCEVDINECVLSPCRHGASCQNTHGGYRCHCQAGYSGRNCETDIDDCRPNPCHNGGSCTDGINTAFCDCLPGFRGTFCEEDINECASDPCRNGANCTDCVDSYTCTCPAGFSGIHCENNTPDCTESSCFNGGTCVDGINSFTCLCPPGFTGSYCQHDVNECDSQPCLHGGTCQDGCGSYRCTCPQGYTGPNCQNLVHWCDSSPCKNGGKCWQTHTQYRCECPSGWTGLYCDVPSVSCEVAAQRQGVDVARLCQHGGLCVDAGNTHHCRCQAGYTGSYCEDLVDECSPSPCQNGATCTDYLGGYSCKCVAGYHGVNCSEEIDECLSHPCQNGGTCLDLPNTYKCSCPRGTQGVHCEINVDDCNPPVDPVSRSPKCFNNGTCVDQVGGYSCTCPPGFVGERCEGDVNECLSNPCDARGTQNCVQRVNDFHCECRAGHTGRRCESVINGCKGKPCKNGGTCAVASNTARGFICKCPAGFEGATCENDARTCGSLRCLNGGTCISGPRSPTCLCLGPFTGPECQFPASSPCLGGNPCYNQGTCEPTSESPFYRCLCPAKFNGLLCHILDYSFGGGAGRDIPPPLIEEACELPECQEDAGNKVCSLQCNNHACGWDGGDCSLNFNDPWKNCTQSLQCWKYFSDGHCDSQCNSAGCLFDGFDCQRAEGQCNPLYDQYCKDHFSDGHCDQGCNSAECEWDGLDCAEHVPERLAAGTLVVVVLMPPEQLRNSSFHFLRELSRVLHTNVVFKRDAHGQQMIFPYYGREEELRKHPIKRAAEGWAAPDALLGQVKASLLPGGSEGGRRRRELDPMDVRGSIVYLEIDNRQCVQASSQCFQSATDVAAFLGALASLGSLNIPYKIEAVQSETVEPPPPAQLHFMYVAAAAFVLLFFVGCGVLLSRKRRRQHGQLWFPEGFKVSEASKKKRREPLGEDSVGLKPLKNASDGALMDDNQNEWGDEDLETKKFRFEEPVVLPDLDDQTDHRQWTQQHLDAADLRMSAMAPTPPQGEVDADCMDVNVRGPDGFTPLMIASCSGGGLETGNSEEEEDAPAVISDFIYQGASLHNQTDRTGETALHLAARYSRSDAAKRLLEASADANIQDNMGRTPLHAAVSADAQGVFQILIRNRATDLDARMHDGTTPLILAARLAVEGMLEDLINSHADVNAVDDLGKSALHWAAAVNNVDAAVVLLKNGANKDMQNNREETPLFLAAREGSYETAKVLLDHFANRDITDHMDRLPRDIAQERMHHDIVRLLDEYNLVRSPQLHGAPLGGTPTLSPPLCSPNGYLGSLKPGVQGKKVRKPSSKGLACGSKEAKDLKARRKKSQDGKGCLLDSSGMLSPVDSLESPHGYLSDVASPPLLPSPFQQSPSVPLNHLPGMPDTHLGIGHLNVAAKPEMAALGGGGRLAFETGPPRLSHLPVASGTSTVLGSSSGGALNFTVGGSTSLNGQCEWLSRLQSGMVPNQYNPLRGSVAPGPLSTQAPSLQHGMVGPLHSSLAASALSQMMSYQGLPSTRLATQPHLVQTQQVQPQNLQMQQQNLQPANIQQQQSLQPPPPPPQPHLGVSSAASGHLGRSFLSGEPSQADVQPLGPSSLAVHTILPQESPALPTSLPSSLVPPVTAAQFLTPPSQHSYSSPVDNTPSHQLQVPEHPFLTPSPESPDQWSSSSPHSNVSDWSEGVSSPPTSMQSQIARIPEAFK

[3] = biological target: Neurogenic locus notch homolog protein 2 (Homo sapiens, UniProt Q04721); assay: Inhibition of Notch2 intracellular domain fragment transfected in human HeLa cells co-transfected with CBF1-PGL3 luciferase reporter vector by transactivation assay
[4] = biological target: Neurogenic locus notch homolog protein 4 (Homo sapiens, UniProt Q99466); assay: Inhibition of Notch4 intracellular domain fragment transfected in human HeLa cells co-transfected with CBF1-PGL3 luciferase reporter vector by transactivation assay

Chain of Neurogenic locus notch homolog protein 3 (Q9UM47 whole entry, the tested form may be a part): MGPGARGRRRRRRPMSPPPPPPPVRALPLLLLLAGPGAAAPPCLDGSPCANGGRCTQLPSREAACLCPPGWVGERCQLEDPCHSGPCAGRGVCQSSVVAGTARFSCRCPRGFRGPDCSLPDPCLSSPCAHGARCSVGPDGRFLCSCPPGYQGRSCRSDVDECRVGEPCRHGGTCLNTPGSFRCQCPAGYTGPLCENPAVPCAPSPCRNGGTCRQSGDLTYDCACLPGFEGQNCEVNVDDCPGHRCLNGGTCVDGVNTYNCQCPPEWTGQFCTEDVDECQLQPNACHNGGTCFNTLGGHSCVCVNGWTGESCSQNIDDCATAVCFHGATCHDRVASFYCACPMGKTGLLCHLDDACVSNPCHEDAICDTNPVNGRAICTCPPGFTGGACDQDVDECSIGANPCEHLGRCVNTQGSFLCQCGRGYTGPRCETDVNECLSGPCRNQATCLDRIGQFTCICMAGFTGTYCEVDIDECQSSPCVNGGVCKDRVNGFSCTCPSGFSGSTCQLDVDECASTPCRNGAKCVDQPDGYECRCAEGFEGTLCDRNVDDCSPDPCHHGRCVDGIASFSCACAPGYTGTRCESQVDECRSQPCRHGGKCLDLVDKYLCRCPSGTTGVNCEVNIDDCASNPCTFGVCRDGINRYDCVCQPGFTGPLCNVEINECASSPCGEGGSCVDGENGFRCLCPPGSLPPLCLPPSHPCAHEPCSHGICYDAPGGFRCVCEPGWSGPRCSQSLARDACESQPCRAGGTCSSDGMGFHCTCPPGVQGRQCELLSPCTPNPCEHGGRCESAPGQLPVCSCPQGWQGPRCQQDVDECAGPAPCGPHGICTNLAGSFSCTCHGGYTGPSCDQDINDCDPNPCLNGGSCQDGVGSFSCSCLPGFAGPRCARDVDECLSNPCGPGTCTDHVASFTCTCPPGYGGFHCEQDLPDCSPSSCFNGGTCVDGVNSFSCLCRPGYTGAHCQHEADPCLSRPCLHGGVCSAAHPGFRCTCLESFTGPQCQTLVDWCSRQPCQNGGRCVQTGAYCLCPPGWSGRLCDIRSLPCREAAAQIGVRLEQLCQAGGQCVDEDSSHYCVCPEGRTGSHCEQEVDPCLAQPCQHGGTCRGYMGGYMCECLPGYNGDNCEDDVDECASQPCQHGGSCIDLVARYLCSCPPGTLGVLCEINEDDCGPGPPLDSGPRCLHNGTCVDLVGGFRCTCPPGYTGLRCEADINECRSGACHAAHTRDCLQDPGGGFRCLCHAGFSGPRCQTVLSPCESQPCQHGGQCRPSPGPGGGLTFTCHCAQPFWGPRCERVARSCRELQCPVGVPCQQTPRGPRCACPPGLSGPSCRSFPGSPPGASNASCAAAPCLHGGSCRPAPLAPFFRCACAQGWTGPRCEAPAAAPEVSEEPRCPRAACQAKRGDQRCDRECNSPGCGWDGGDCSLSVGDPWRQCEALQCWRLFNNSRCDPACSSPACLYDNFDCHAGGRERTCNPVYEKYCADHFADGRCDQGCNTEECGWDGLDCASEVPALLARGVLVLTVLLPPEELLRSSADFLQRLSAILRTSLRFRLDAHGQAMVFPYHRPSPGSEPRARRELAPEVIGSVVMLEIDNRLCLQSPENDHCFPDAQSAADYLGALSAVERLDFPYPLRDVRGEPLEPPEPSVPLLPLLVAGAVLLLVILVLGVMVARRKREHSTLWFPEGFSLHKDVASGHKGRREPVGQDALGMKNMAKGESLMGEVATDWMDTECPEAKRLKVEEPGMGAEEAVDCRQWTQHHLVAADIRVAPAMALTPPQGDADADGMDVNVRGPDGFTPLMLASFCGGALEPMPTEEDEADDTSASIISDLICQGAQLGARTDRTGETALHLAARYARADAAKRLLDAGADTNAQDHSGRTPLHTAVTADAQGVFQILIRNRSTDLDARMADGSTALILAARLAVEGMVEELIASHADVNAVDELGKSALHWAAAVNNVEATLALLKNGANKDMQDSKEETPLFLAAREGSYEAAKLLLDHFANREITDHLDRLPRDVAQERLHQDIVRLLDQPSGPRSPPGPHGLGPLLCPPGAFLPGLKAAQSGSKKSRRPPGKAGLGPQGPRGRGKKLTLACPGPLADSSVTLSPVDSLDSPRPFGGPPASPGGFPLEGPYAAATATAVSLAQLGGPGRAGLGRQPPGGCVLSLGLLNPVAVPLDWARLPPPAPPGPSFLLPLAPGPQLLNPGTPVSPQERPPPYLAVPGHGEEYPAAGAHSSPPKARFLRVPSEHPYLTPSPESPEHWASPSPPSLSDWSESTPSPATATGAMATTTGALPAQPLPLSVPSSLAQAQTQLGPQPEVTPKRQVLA

Compound | IC50 [1] | IC50 [2] | IC50 [3] | IC50 [4]
Cc1cc([C@H](C(N)=O)[C@@H](CCC(F)(F)F)C(=O)N[C@H]2N=C(c3ccccc3)c3ccccc3N(C)C2=O)no1 | 62 nM | 54 nM | – | –
CN1C(=O)[C@@H](NC(=O)[C@H](CCC(F)(F)F)[C@@H](C(N)=O)c2ccccc2)N=C(c2ccccc2)c2ccccc21 | – | – | 1 nM | 3 nM
CN1C(=O)[C@@H](NC(=O)[C@H](CCC(F)(F)F)[C@@H](C(N)=O)c2cccc(S(C)(=O)=O)c2)N=C(c2ccccc2)c2ccccc21 | 2240 nM | 2060 nM | – | –
CN1C(=O)[C@@H](NC(=O)[C@H](CCC(F)(F)F)[C@@H](C(N)=O)c2cc(F)cc(F)c2)N=C(c2ccccc2)c2ccccc21 | 2 nM | 2 nM | – | –
COc1ccc([C@H](C(N)=O)[C@@H](CCC(F)(F)F)C(=O)N[C@H]2N=C(c3ccccc3)c3ccccc3N(C)C2=O)cc1 | 6 nM | 9 nM | – | –
Cc1cccc([C@H](C(N)=O)[C@@H](CCC(F)(F)F)C(=O)N[C@H]2N=C(c3ccccc3)c3ccccc3N(C)C2=O)c1 | 1 nM | 3 nM | – | –
NC(=O)[C@@H](c1cocn1)[C@@H](CCC(F)(F)F)C(=O)N[C@H]1N=C(c2ccccc2)c2ccccc2NC1=O | 161 nM | 231 nM | – | –
CCC(CC)[C@H](C(N)=O)[C@@H](CC(C)C)C(=O)N[C@H]1N=C(c2ccccc2)c2ccccc2N(C)C1=O | – | 2 nM | – | –
CN1C(=O)[C@@H](NC(=O)[C@H](CCC(F)(F)F)[C@@H](C(N)=O)c2ccc(F)cc2)N=C(c2ccccc2)c2ccccc21 | 1 nM | 2 nM | – | –
CN1C(=O)[C@@H](NC(=O)[C@H](CCC(F)(F)F)[C@@H](C(N)=O)c2ccc(F)cc2F)N=C(c2ccccc2)c2ccccc21 | 1 nM | 1 nM | – | –
Cc1nc([C@H](C(N)=O)[C@@H](CCC(F)(F)F)C(=O)N[C@H]2N=C(c3ccccc3)c3ccccc3N(C)C2=O)no1 | 119 nM | 169 nM | – | –
CN1C(=O)[C@@H](NC(=O)[C@H](CCC(F)(F)F)[C@@H](C(N)=O)c2cccc(OC(F)(F)F)c2)N=C(c2ccccc2)c2ccccc21 | 4 nM | 3 nM | – | –
CCC[C@H](C(N)=O)[C@@H](CC(F)(F)F)C(=O)N[C@H]1N=C(c2ccccc2)c2ccccc2N(C)C1=O | 24 nM | 13 nM | – | –
CCC(CC)[C@H](C(N)=O)[C@@H](CC(C)(C)C)C(=O)N[C@H]1N=C(c2ccccc2)c2ccccc2N(C)C1=O | 3 nM | 3 nM | – | –
Cc1nocc1[C@H](C(N)=O)[C@@H](CCC(F)(F)F)C(=O)N[C@H]1N=C(c2ccccc2)c2ccccc2N(C)C1=O | 3 nM | 3 nM | – | –
CCC(CC)[C@H](C(N)=O)[C@@H](CCC(F)(F)F)C(=O)N[C@H]1N=C(c2ccccc2)c2ccccc2N(C)C1=O | 1 nM | 1 nM | – | –
NC(=O)[C@@H](c1cnoc1)[C@@H](CCC(F)(F)F)C(=O)N[C@H]1N=C(c2ccccc2)c2ccccc2NC1=O | 29 nM | 32 nM | – | –
NC(=O)[C@@H](c1ncon1)[C@@H](CCC(F)(F)F)C(=O)N[C@H]1N=C(c2ccccc2)c2ccccc2NC1=O | 656 nM | 1190 nM | – | –
CN1C(=O)[C@@H](NC(=O)[C@H](CCC(F)(F)F)[C@@H](C(N)=O)c2cccc(C(F)(F)F)c2)N=C(c2ccccc2)c2ccccc21 | 2 nM | 1 nM | – | –
CN1C(=O)[C@@H](NC(=O)[C@H](CCC(F)(F)F)[C@@H](C(N)=O)c2ccc(F)c(F)c2)N=C(c2ccccc2)c2ccccc21 | 2 nM | 2 nM | – | –
